Measurements from patent US7892350B2, “Sacrificial agents for fly ash concrete” (Boral Material Technologies Inc., priority 2003, dated 2011).
Read-outs that look alike come from different tables or passages of the source.

Experiments:
[1] = Paste air entrainment, Maximum air protocol; conditions: for Average of air entrained at 66 min: over the fly ash:PCA pastes of Table 9
Experimental: Preparation of pastes: Pastes were prepared by pouring 400 g of cementitious powder in the 350-400 g of solution (water and additives) in a vessel (8.4 cm dia,×14.5 cm height) while gently stirring with a spatula; the exact quantity of water depends on the selected W/B ratio (see below); rapid hand mixing was continued for 1 minute, followed by intense stirring at 25° C. during 2 min using a hand-held mixer (BRAUN model MR400). The level of air entrained is dependent on the mode of utilisation of the mixer, namely the height of the mixer from the bottom of the vessel and the length of the mixing stroke; the following protocols were adopted.
Fluidity measurements: For all air entrainment measurements, the initial fluidity of the paste (without additives) was controlled using the ‘mini-slump’ procedure widely used for paste and grouts. In this protocol, a portion of the paste was transferred into the min-slump cone (a 2¼″ high, 1½″ bottom diameter, ¾″ top diameter cone); excess paste was skimmed-off with a straight; the cone was then raised and the spread diameter of the paste was recorded (average of two measurements). The fluidity is measured at 10 minutes after mixing. The paste is returned to the batch and reserved for subsequent AE measurements. The fluidity of the paste (without SA and AEA) is adjusted by changing the amount of water (water/cementitious ratio) which yields a spread diameter of 115±5 mm. The latter is monitored regularly.
Air entrainment measurements: For air entrainment measurements, a portion of the paste was transferred to overfill a Plexiglas cylinder (3¾ inches height, 2 inches interior diameter), which was then levelled flush to the top of the cylinder with a straight edge. The mass of the filled cylinder, minus the weight of the empty cylinder, is then recorded and used to calculate the amount of air according to the following formula: […]
This procedure was carried out at three times at 30 min. intervals (6, 36 and 66 min); the paste was let to stand at rest between measurements, and was stirred gently by hand for one minute prior to the subsequent air entrainment measurements.
Other combinations of air entrainment agents and sacrificial agents were prepared as stock solutions following the procedure outlined above, adjusting the weights of the various components to achieve the desired component ratios.

[2] = Second sacrificial agent testing protocol: paste air measurements with DDBS (0.0125 wt %) and rating; for Overall performance rating (second protocol rating): key: 0: Fail; 1: Poor; 2: Good; 3: Preferred; 4: Most preferred; for SA Rating (0-4): key: 0: Fail; 1: Poor; 2: Good; 3: Preferred; 4: Most preferred
How it was run: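 Air entrainment was measured in cement pastes of fixed composition and fluidity. The candidate agent was tested alone at 0.1 wt % in a cement-only paste. It was also tested at 0.05 and 0.1 wt % in a fly ash (B1)-cement paste with DDBS, where air recovery was calculated against the same paste without agent.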

[3] = 50:50 fly ash B1 (LOI 4.36%):PCA paste, Air 30 (0.0125 wt %)/ND/X=1/4/4, X = the labelled SA
[4] = 50:50 fly ash C1 (LOI 1.62%):PCA paste, Air 30 (0.0125 wt %)/ND/X=1/4/4, X = the labelled SA
[5] = 50:50 fly ash D (LOI […]):PCA paste, Air 30 (0.0125 wt %)/ND/X=1/4/4, X = the labelled SA
[6] = 50:50 fly ash M1 (LOI […]):PCA paste, Air 30 (0.0125 wt %)/ND/X=1/4/4, X = the labelled SA
[7] = 50:50 fly ash M2 (LOI 5.34%):PCA paste, Air 30 (0.0125 wt %)/ND/X=1/4/4, X = the labelled SA
[8] = 50:50 fly ash M3 (LOI 11.33%):PCA paste, Air 30 (0.0125 wt %)/ND/X=1/4/4, X = the labelled SA
[9] = 50:50 fly ash R (LOI […]):PCA paste, Air 30 (0.0125 wt %)/ND/X=1/4/4, X = the labelled SA
[10] = PCA paste, no fly ash, Air 30 (0.0125 wt %)/ND/X=1/4/4, X = the labelled SA
[11] = Air 30 (0.0125 wt %)/ND/X=1/4/4, X = the labelled SA
[12] = Portland cement paste (PCA), […]
[13] = sacrificial agent overall rating index
[14] = sum of ratings of air entrainment recovery by 0.05% and 0.1% SA, DDBS 0.0125 wt %, 50:50 B1 fly ash:cement paste

Compound	Air entrained at 66 min [1, 3] [vol %]	Air entrained at 66 min [1, 4] [vol %]	Air entrained at 66 min [1, 5] [vol %]	Air entrained at 66 min [1, 6] [vol %]	Air entrained at 66 min [1, 7] [vol %]	Air entrained at 66 min [1, 8] [vol %]	Air entrained at 66 min [1, 9] [vol %]	Air entrained at 66 min [1, 10] [vol %]	Average of air entrained at 66 min [1, 11] [%]	Overall performance rating (second protocol rating) [2]	PCA + 0.1% SA (level of air entrainment by the candidate sacrificial agent) [2, 12]	SA Rating (0-4) [2, 13]	other results
CC(O)C(O)c1ccccc1 (centres unmarked) [1-Phe 2-Pro, 1-Phenyl 2-propylene glycol]	13	18	18	16	9	13	16	17	15	–	–	–	–
CCCCOCCOCCO [Di-EGBE, Di-ethylene glycol butyl ether]	16	21	24	21	11	17	22	22	19	4	2.7	4	B1 + 0.0125% DDBS + 0.05% SA (air entrainment) ([2]; B1 FA/cement paste, […]): 9.9; B1 + 0.0125% DDBS + 0.1% SA (air entrainment) ([2]; B1 FA/cement paste, […]): 11.2
COC(C)COC(C)CO (centres unmarked) [Di-PGME, Di-propylene glycol methyl ether]	16	21	25	20	11	15	20	23	18	–	1.1	4	B1 + 0.0125% DDBS + 0.05% SA (air entrainment) ([2]; B1 FA/cement paste, 0.0125 wt % DDBS, 0.05 wt % SA): 8.7; B1 + 0.0125% DDBS + 0.1% SA (air entrainment) ([2]; B1 FA/cement paste, 0.0125 wt % DDBS, 0.10 wt % SA): 9.7; Overall performance rating (second protocol rating) [2, 14]: 4
COCCO [EGME, Ethylene glycol methyl ether]	12	20	20	17	8	12	17	18	15	1	–	–	B1 + 0.0125% DDBS + 0.05% SA (air entrainment) [2]: 3.3; B1 + 0.0125% DDBS + 0.1% SA (air entrainment) [2]: 4.3; PCA + 0.1% SA (level of air entrainment by the candidate sacrificial agent) [2]: 0.7; SA Rating (0-4) [2]: 1
OCC(O)CO [Glycerol]	12	18	18	16	7	11	18	16	14	2	0.1	2	B1 + 0.0125% DDBS + 0.1% SA (air entrainment) ([2]; B1 FA/cement paste, […]): 2.3
Polyethylene glycol (Molecular weight = 200) [PEG 200]	14	–	20	19	9	–	18	18	16	–	–	–	Overall performance rating (second protocol rating) [2, 14]: 3
Polyethylene glycol (Molecular weight = 1500) [PEG 1500]	14	–	21	18	9	–	18	20	16	–	–	–	Air entrained at 66 min ([1]; 50:50 fly ash B1 (LOI 4.36%):PCA paste, Air 30 (0.0125%)/NS/X=1/4/4, X = the labelled SA): 8 vol %; Air entrained at 66 min ([1]; 50:50 fly ash D (LOI […]):PCA paste, Air 30 (0.0125%)/NS/X=1/4/4, X = the labelled SA): 19 vol %; Air entrained at 66 min ([1]; 50:50 fly ash M1 (LOI […]):PCA paste, Air 30 (0.0125%)/NS/X=1/4/4, X = the labelled SA): 18 vol %; Air entrained at 66 min ([1]; 50:50 fly ash M2 (LOI 5.34%):PCA paste, Air 30 (0.0125%)/NS/X=1/4/4, X = the labelled SA): 5 vol %; Air entrained at 66 min ([1]; 50:50 fly ash R (LOI […]):PCA paste, Air 30 (0.0125%)/NS/X=1/4/4, X = the labelled SA): 16 vol %; Air entrained at 66 min ([1]; PCA paste, no fly ash, Air 30 (0.0125%)/NS/X=1/4/4, X = the labelled SA): 11 vol %
Sodium di-butyl naphthalene sulfonate [DBNS]	–	–	–	–	–	–	–	–	–	–	–	–	Air entrained at 66 min ([1]; 50:50 fly ash B1 (LOI 4.36%):PCA paste, Air 30 (0.0125 wt %)/X/ButOH=1/4/4, X = the labelled sulfonated SA): 11 vol %; Air entrained at 66 min ([1]; 50:50 fly ash D (LOI […]):PCA paste, Air 30 (0.0125 wt %)/X/ButOH=1/4/4, X = the labelled sulfonated SA): 20 vol %; Air entrained at 66 min ([1]; 50:50 fly ash M2 (LOI 5.34%):PCA paste, Air 30 (0.0125 wt %)/X/ButOH=1/4/4, X = the labelled sulfonated SA): 7 vol %; Air entrained at 66 min ([1]; PCA paste, no fly ash, Air 30 (0.0125 wt %)/X/ButOH=1/4/4, X = the labelled sulfonated SA): 17 vol %
